The text below walks through data of US20120136033A1, “Small Molecule Antagonists of Phosphatidylinositol-3,4,5-Triphosphate (PIP3) and Uses Thereof” (President and Fellows of Harvard College, priority 2009, published 2012).

For data set [1], the system named is SV40-transformed mouse adult lung fibroblasts. Put plainly: loss of viability, Akt1-expressing vs Akt1-3 triple knockout lung fibroblasts. Particulars: P<0.01. The format is cell-based. The source says:
Shaughnessy J D (2008) Nature 454:172-3; Weinstein I G (2002) Science 297:63-4. Therefore, the possibility that PIT-1 may cause preferential cell death in the cells containing elevated PIP3 levels was examined. […] Li D M et al. (1998) Proc Natl Acad Sci USA 95:15406-11. […] This observation is consistent with the notion that PTEN-deficient cancer cells become overly dependent on PIP3 signaling and, therefore, are hypersensitive to disruption of this pathway compared to wild-type PTEN-expressing cells. Neshat M S et al. (2001) Proc Natl Acad Sci USA 98:10314-9.

Data set [2] deals with human cancer cells. Put plainly: transwell (Boyden chamber) migration of cancer cells. It counts as cell-based. The procedure:
Two models of cell migration were used, a transwell migration model and a wound closure model. Migration of cancer and endothelial cells was evaluated using 24-transwell Boyden chamber (Costar, Bedford, Mass.) with a polystyrene membrane (6.5 mm diameter, 10 μm thickness, and 8 μm pore size). Cells were suspended in serum-free media and seeded in the upper compartment of each well (2×10^4 cells/well) in the presence or absence of different compounds at the indicated concentrations. The lower compartment contained 600 μl of serum-free culture media supplemented with growth factors. After an 8-hr incubation at 37° C., cells were fixed and stained with 0.1% crystal violet. Non-migrating cells on the upper surface of the filter were removed, and the stained cells that migrated to the lower side were photographed using a phase-contrast microscope (Nikon, Japan) in five random fields. The cells were lysed with 10% acetic acid, and colorimetric determination was made at 595 nm using Wallac Victor 3 plate reader.

Data set [3] relates to cells. Put plainly: cell death with inhibitors of mitochondrial respiration and ATP synthase. It counts as cell-based. An excerpt:
Elstrom R L et al. (2004) Cancer Res 64:3892-9.

In data set [4] the test system is CD31. Put plainly: tumor angiogenesis in vivo, microvasculature marker CD31. The settings on record: mouse. The procedure: Tumor tissues were fixed in phosphate-buffered formalin, embedded in paraffin, cut in 4 μM thickness, and applied to slides. The slides were deparaffinized in xylenes using three changes for 5 min each, and hydrated gradually through graded alcohols: 100% ethanol twice for 10 min each, 95% ethanol twice for 10 min each, and then deionized water for 1 min with stirring. For antigen unmasking, slides were placed in a container, covered with 10 mM sodium citrate buffer, pH 6.0, and heated in a convection steamer for 1 hr. The slides were washed in deionized water three times for 2 min each, blocked with 5% normal goat blocking serum for 30 min, incubated with goat anti-CD31 primary antibody for 1 hr, and incubated with an Alexa Fluor 488-conjugated secondary antibody for 30 min. The slides were analyzed and photographed using a fluorescent microscope. TUNEL staining was performed using FragEL kit according to manufacturer's instructions (Calbiochem).
In view of the significant inhibitory effect of PIT-1 on angiogenesis observed in vitro, the extent of angiogenesis in DM-PIT-1-treated tumors was examined in vivo using microvasculature marker CD31. […] Suppression of angiogenesis also likely contributed to the suppression of tumor growth by DM-PIT-1 treatment in vivo, considering a relatively low dose of the compound used in the experiments.

The nature of data set [5]: solubility / precipitation. It counts as physicochemical. The settings on record: 300 μM, unencapsulated, cell media. The source says: This method has been reported to be efficient for in vivo targeting of cancer cells by other poorly soluble anti-cancer drugs, such as m-porphyrin, tamoxifen, and taxol. Gao Z et al. (2003) J Drug Target 11:87-92; Torchilin V P et al. (2003) Proc Natl Acad Sci USA 100:6039-44.
The size of the DM-PIT-1-loaded micelles was about 15 nm with a narrow size distribution.

Data set [6] deals with 4T1 breast cancer. Put plainly: syngeneic 4T1 breast tumor growth in BALB/c mice. The format is in vivo, mouse. The method, then: After inoculation of tumor cells, DM-PIT-1 or DM-PIT-1-M were administered i.v. daily at doses of 0.4 mg/kg and 1 mg/kg, respectively, for 8 days. Tumor volumes as measured every two days are shown.
The effect of intravenous (i.v.) administration of both unencapsulated DM-PIT-1 in PBS and DM-PIT-1-M on the syngeneic 4T1 breast cancer growth in BALB/c mice was examined. 4T1 metastatic breast cancer cells were first cultured in vitro in DMEM medium containing 10% FBS and antibiotics. After re-suspension in PBS, the 4T1 cancer cells (8×10^4) were injected s.c. into axillary regions of BALB/c mice. The treatment with PIT-1 began on day 11 after inoculation of tumor cells, i.e., when tumors were palpable, but before tumors are precisely measurable (˜50 mm^3). Working solutions of all PIT-1-formulations were made in sterile 0.9% NaCl before injection into mice. Free DM-PIT-1 and micellar DM-PIT-1 were administered i.v. daily at doses of 0.4 and 1 mg/kg, respectively, for 8 days. If the tumor size reached approx. 1000 mm^3, the mice were euthanized using carbon dioxide (CO2) prior to cervical dislocation. Seven mice per group were used. The tumor volume (V) was measured every two days by microcaliper for 8 days. Tumor volume was calculated according to the formula ([…])/2, where α is the longest and b is the shortest diameter of tumor, respectively.

For data set [7], the system named is PI3K-PDK1-Akt pathway. Put plainly: PI3K-PDK1-Akt pathway phosphorylation events in U87MG cells. The format is cell-based, human. The method, then: The effect of PIT-1 on PIP3-mediated signaling was examined in U87MG glioblastoma cells, which show elevated basal levels of PIP3 due to the loss of PTEN. Pore N et al. (2003) Cancer Res 63:236-41.
The subject of data set [8] is U87MG cells. Put plainly: U87MG cell viability, ATP assay. The format is cell-based, human. The procedure: U87MG cells were incubated with PITs (12.5-100 μM) for 48 hr. Cell viability was determined using ATP assay.
Based on the critical role of PIP3-dependent Akt signaling in the regulation of cell survival, the effect of PIT-1 on the cancer cell viability was tested. Cancer cells were seeded into 96-well plates (white plates for ATP assay; black plates for fluorescent assay; clear plates for MTS assay) at the density of 5-10×10^3 cells per well in 100 μl of the appropriate media. Compounds were added at a series of concentrations and incubated for different times. For the ATP assay, a luminescence-based commercial kit (CellTiter-Glo, Promega, Madison, Wis.) was used. Thirty microliters of cell lysis/ATP detection reagent was added to each well, mixed for 10 min at room temperature, and the luminescence was measured using a Wallac Victor 3 plate reader (Perkin-Elmer, Wellesley, Mass.). For the MTS assay, a CellTiter 96 AQueous Non-Radioactive Cell Proliferation Assay Kit (Promega, Madison, Wis., USA) was used. Twenty microliters of the combined MTS/PMS solution was added into each well, incubated for 4 hr at 37° C., and the absorbance at 490 nm was measured using a Wallac Victor 3 plate reader. For the Sytox cell death assay, measuring loss of plasma membrane integrity, cells were incubated with 1 μM Sytox Green reagent (Molecular Probes, Eugene, Oreg.) for 30 min at 37° C. and the fluorescence intensity was measured using Wallac Victor 3 plate reader with excitation at 485 nm and emission at 545 nm. Next, 5 μl of 20% (v/v) Triton X-100 solution was added to each well and incubated for 1 hr at 37° C., and the signal was measured again. The ratio of values (percentage of dead cells in each well) before and after Triton X-100 treatment was calculated and normalized to the relevant controls not subjected to the cytotoxic stimuli. IC50 values were determined using Origin6 software (MicroCal, LLC, Northampton, Mass.).

For data set [9], the system named is PH domains of Akt, PDK1, and IRS1. The settings on record: cited from earlier work.
For data set [10] the following is noted: cited from earlier work.
Data set [11] has as its system U87MG cells. Put plainly: sensitization of U87MG cells to killing by TRAIL, ATP assay. The format is cell-based, human. The method, then: FIG. 10 is a bar graph depicting that PITs, as well as Akt inhibitor VIII, sensitize U87MG cells to killing by TRAIL. U87MG cells were incubated with 50 μM PIT-1, PIT-2, PIT-1i-1 or 10 μM Akt inhibitor VIII in the presence or absence of 10 ng/ml TRAIL for 48 hr, followed by cell viability analysis using ATP assay.
Based on the critical role of PIP3-dependent Akt signaling in the regulation of cell survival, the effect of PIT-1 on the cancer cell viability was tested. Cancer cells were seeded into 96-well plates (white plates for ATP assay; black plates for fluorescent assay; clear plates for MTS assay) at the density of 5-10×10^3 cells per well in 100 μl of the appropriate media. […] For the ATP assay, a luminescence-based commercial kit (CellTiter-Glo, Promega, Madison, Wis.) was used. Thirty microliters of cell lysis/ATP detection reagent was added to each well, mixed for 10 min at room temperature, and the luminescence was measured using a Wallac Victor 3 plate reader (Perkin-Elmer, Wellesley, Mass.). […] Twenty microliters of the combined MTS/PMS solution was added into each well, incubated for 4 hr at 37° C., and the absorbance at 490 nm was measured using a Wallac Victor 3 plate reader. […] Next, 5 μl of 20% (v/v) Triton X-100 solution was added to each well and incubated for 1 hr at 37° C., and the signal was measured again. […]

For `O=c1[nH]c2ccccc2n1C1CCN(Cc2ccc(-c3nc4cc5[nH]cnc5cc4nc3-c3ccccc3)cc2)CC1` [Akt kinase inhibitor VIII, reference compound], the “loss of viability in Akt1-expressing fibroblasts compared to Akt1-3 triple knockout cells” value in [1] is “comparable”. In addition, the “inhibition of cancer cell migration” value in [2] (transwell / wound healing models) was “lack thereof”. In addition, the “synergy with oligomycin, antimycin A and rotenone in inducing cell death” value in [3] is “synergized”.
Take `Cc1cc(C)cc(C(=O)NC(=S)Nc2cc([N+](=O)[O-])ccc2O)c1` [DM-PIT-1]: the “CD31 loci in treated tumors (angiogenesis in vivo)” value in data set [4] is “attenuation of a number of CD31 loci”. The “precipitation in cell media at 300 μM” value in [5] is reported as “significant precipitation”. For the same molecule, the “tumor growth in vivo compared to control” value in data set [6] (8-day administration, P<0.01) was “significantly attenuated tumor growth”. Besides, the “reduction of tumor volume as compared to control” value in data set [6] (day 8, i.v. daily, free 0.4 mg/kg, micellar 1 mg/kg) is recorded as 58.1%. Also, the tumor volume in data set [6] (day 8, i.v. daily, free 0.4 mg/kg, micellar 1 mg/kg, control 902.5±153) is reported as 380±52.3 mm^3. Also, in data set [2], the “activity compared to PIT-1 in inhibition of cell migration” value is “increased activity”. Further, the “activity compared to PIT-1 in inhibition of PI3K-PDK1-Akt signaling” value in [7] is “increased activity”. In addition, the “activity compared to PIT-1 in inducing cell death in U87MG cells” value in [8] is on record as “increased activity”.
Consider `CC1=NN(C(=O)c2ccc(Cl)cc2)C(=O)C1N=Nc1ccc(S(=O)(=O)Nc2ncccn2)cc1` (centres unmarked) [NSC 348900, 4-[1-(4-chlorobenzoyl)-3-methyl-5-oxo-4,5-dihydro-1H-pyrazol-4-ylazo]-N-pyrimidine-2-yl-benzenesulfonamide], for which, in data set [9], the “interaction with PH domains of Akt, PDK1, and IRS1” value is “capable of interacting”. Besides, the “in vivo anti-tumor activity” value in data set [10] is on record as “lacked in vivo anti-tumor activity”.

B1: TRAIL: Tumor necrosis factor (TNF)-related apoptosis-inducing ligand, 281 amino acid-long member of the TNF family of cytokines (protein, UniProt P50591 1-281, looked up)
chain: MAMMEVQGGPSLGQTCVLIVIFTVLLQSLCVAVTYVYFTNELKQMQDKYSKSGIACFLKEDDSYWDPNDEESMNSPCWQVKWQLRQLVRKMILRTSEETISTVQEKQQNISPLVRERGPQRVAAHITGTRGRSNTLSSPNSKNEKALGRKINSWESSRSGHSFLSNLHLRNGELVIHEKGFYYIYSQTYFRFQEEIKENTKNDKQMVQYIYKYTSYPDPILLMKSARNSCWSKDAEYGLYSIYQGGIFELKENDRIFVSVTNEHLIDMDHEASFFGAFLVG
modifications: full-length
notes: Tumor necrosis factor (TNF)-related apoptosis-inducing ligand, 281 amino acid-long member of the TNF family of cytokines
Regarding B1, the “sensitivity of U87MG cells to TRAIL alone” value in [11] was “entirely resistant”.
